The term MIC denotes the lowest concentration that inhibits growth of the organism. A lower MIC goes with a more susceptible organism.

For ten molecules, MIC results are on record in DBAASP.

Holding throughout (assay): ≥ marks a high value that may be exact or a test limit, other limits are often not marked, values filed in µg/mL are converted to µM
Assay [1] has as its system Staphylococcus aureus ATCC 25923.
In assay [2] the test system is Staphylococcus aureus ATCC 33591.
Assay [3] has as its system Pseudomonas aeruginosa ATCC 27853.
Assay [4] concerns Escherichia coli ATCC 25922.
The test system of assay [5] is Staphylococcus aureus ATCC 2592.
Assay [6] concerns Candida albicans ATCC 2002.
For assay [7], the system named is Bacillus subtilis.
The subject of assay [8] is Enterococcus faecalis ATCC 29212.
Assay [9] concerns Escherichia coli.
The subject of assay [10] is Klebsiella pneumoniae ATCC 13883.
Assay [11] has as its system Streptococcus pyogenes ATCC 19615.
Assay [12] concerns Salmonella enterica subsp. enterica serovar Typhimurium ATCC 14028.
The test system of assay [13] is Salmonella enterica subsp. enterica serovar Typhimurium C77-31.
In assay [14] the test system is Staphylococcus epidermidis ATCC 12228.
For assay [15], the system named is Escherichia coli UB1005.
Assay [16] concerns Acinetobacter baumannii ATCC 19606.
The test system of assay [17] is Staphylococcus aureus MR.
For assay [18], the system named is Staphylococcus aureus ATCC 29213.
The test system of assay [19] is Acinetobacter baumannii.
The test system of assay [20] is Candida albicans ATCC 90028.

≈ marks a conversion by molar mass, not a printed value. Where “and” joins values, the source holds several entries; their conditions need not be identical. Identical values can stand only once.

Consider `NC(=O)[C@H](CCCN=C(N)N)NC(=O)[C@H](CCCN=C(N)N)NC(=O)[C@@H]1CCCN1C(=O)[C@H](CCCN=C(N)N)NC(=O)[C@H](CCCN=C(N)N)NC(=O)[C@H](CCCN=C(N)N)NC(=O)[C@H](Cc1c[nH]c2ccccc12)NC(=O)[C@H](CCCN=C(N)N)NC(=O)[C@H](CCCN=C(N)N)NC(=O)[C@H](CCCN=C(N)N)NC(=O)[C@H](CCCN=C(N)N)NC(=O)[C@H](CCCN=C(N)N)NC(=O)[C@H](Cc1c[nH]c2ccccc12)NC(=O)[C@H](CCCN=C(N)N)NC(=O)[C@H](CCCN=C(N)N)NC(=O)[C@H](Cc1ccc(O)cc1)NC(=O)[C@H](CCCN=C(N)N)NC(=O)[C@H](CCCN=C(N)N)NC(=O)[C@H](CCCN=C(N)N)NC(=O)[C@@H](N)Cc1c[nH]c2ccccc12` [WRRRYRRWRRRRRWRRRPRR], for which the MIC turned out to be 1.56 µM (≈ 4.96 µg/mL) in assay [1], 1.56 µM (≈ 4.96 µg/mL) in assay [2], 3.13 µM (≈ 9.95 µg/mL) in assay [3] and 3.13 µM (≈ 9.95 µg/mL) in [4].

With `CC[C@H](C)[C@H](NC(=O)CNC(=O)[C@H](CO)NC(=O)[C@H](CCCN=C(N)N)NC(=O)[C@@H](N)Cc1ccccc1)C(=O)N[C@@H](CC(C)C)C(=O)N[C@@H](CCCCN)C(=O)N[C@@H](CC(C)C)C(=O)N[C@@H](C)C(=O)N[C@@H](CO)C(=O)N[C@@H](CCCCN)C(=O)N[C@H](C(=O)N1CCC[C@H]1C(=O)N[C@@H](CO)C(=O)N[C@H](C(=O)N[C@@H](CC(C)C)C(=O)N[C@H]1CSSC[C@@H](C(=O)O)NC(=O)[C@H](CC(N)=O)NC(=O)[C@H](CCCCN)NC(=O)[C@H](CC(C)C)NC(=O)[C@H](C(C)C)NC(=O)[C@H](C)NC1=O)C(C)C)[C@@H](C)CC` [FRSGILKLASKIPSVLCAVLKNC], the minimum inhibitory concentration (MIC) in assay [5] was determined as 5.08 µM (≈ 12.5 µg/mL); in assay [6] it was 10.2 µM (≈ 25 µg/mL); in [7] it was 20.3 µM (≈ 50 µg/mL); in assay [4], 20.3 µM (≈ 50 µg/mL).

In the case of `CC[C@H](C)[C@H](NC(=O)[C@H](CC(C)C)NC(=O)[C@H](CC(=O)O)NC(=O)[C@H](CCC(N)=O)NC(=O)[C@H](CCC(N)=O)NC(=O)[C@H](CC(C)C)NC(=O)[C@H](CCC(=O)O)NC(=O)[C@@H]1CCCN1C(=O)[C@@H](N)Cc1ccc(O)cc1)C(=O)N[C@@H](C)C(=O)N[C@@H](CCCN=C(N)N)C(=O)N[C@@H](CC(C)C)C(=O)N[C@@H](CC(C)C)C(=O)O` [YPELQQDLIARLL], the MIC in assay [5] came to 4.01 µM (≈ 6.3 µg/mL); in [6], 15.9 µM (≈ 25 µg/mL); in [7], 1.97 µM (≈ 3.1 µg/mL); in [4], 31.8 µM (≈ 50 µg/mL).

Take `CC[C@H](C)[C@H](NC(=O)CNC(=O)[C@H](CCC(N)=O)NC(=O)[C@H](CC(C)C)NC(=O)[C@H](CC(N)=O)NC(=O)[C@H](CC(C)C)NC(=O)[C@H](Cc1ccccc1)NC(=O)CNC(=O)[C@H](Cc1cnc[nH]1)NC(=O)[C@H](CCCCN)NC(=O)[C@@H](N)CCCN=C(N)N)C(=O)N[C@@H](Cc1ccccc1)C(=O)NCC(=O)N[C@@H](CC(=O)O)C(=O)N[C@@H](Cc1ccc(O)cc1)C(=O)N[C@@H](Cc1ccc(O)cc1)C(=O)N[C@@H](Cc1cnc[nH]1)C(=O)N[C@@H](Cc1ccccc1)C(=O)N[C@@H](Cc1c[nH]c2ccccc12)C(=O)N[C@@H](Cc1cnc[nH]1)C(=O)N[C@@H](CCCN=C(N)N)C(=O)NCC(=O)N[C@H](C(=O)O)C(C)C` [RKHGFLNLQGIFGDYYHFWHRGV]: the MIC in [1] was above 100 µM; in assay [8], above 100 µM; in assay [3] it was above 100 µM; in assay [9], 4 µM (≈ 11.4 µg/mL); in [7] it was at least 100 µM; in [10], at least 100 µM. Besides, the MIC in assay [11] was at least 100 µM; in assay [12] it was above 100 µM.

On to `CC[C@H](C)[C@H](NC(=O)[C@H](CCCCN)NC(=O)[C@H](Cc1c[nH]c2ccccc12)NC(=O)[C@H](CC(C)C)NC(=O)[C@H](CCCN=C(N)N)NC(=O)[C@H](CCCCN)NC(=O)[C@H](CCCN=C(N)N)NC(=O)[C@@H](NC(=O)[C@H](CCCCN)NC(=O)[C@H](Cc1c[nH]c2ccccc12)NC(=O)[C@H](CCCN=C(N)N)NC(=O)[C@H](CC(C)C)NC(=O)[C@H](CCCN=C(N)N)NC(=O)[C@H](CCCN=C(N)N)NC(=O)[C@H](Cc1ccccc1)NC(=O)[C@@H](N)CCCN=C(N)N)[C@@H](C)O)C(N)=O` [RFRRLRWKTRKRLWKI], for which the MIC was determined as 16 µM (≈ 36.8 µg/mL) in [13], 8 µM (≈ 18.4 µg/mL) in assay [8], 32 µM (≈ 73.6 µg/mL) in [14] and 16 µM (≈ 36.8 µg/mL) in [15].

In the case of `CC[C@H](C)[C@@H]1NC(=O)[C@H](CO)NC(=O)[C@H](CCCCN)NC(=O)[C@H]([C@@H](C)O)NC(=O)[C@H](Cc2c[nH]c3ccccc23)NC(=O)[C@@H](NC(=O)CNC(=O)[C@H](CCCCN)NC(=O)[C@@H](N)CC(C)C)CSSC[C@@H](C(=O)N[C@@H](Cc2ccccc2)C(=O)O)NC(=O)[C@@H]2CCCN2C(=O)[C@H](CCCCN)NC(=O)[C@@H]2CCCN2C(=O)[C@@H]2CCCN2C1=O` [LKGCWTKSIPPKPCF], the MIC in [5] came out at 1.03 µM (≈ 1.76 µg/mL); in assay [6] it was 2.75 µM (≈ 4.68 µg/mL); in assay [7], 1.37 µM (≈ 2.34 µg/mL); in assay [4] it was 1.37 µM (≈ 2.34 µg/mL).

On to `CC[C@H](C)[C@H](NC(=O)[C@H](CCC(N)=O)NC(=O)[C@H](CC(C)C)NC(=O)[C@H](CCC(N)=O)NC(=O)[C@@H](NC(=O)[C@H](CCCN=C(N)N)NC(=O)[C@H](Cc1ccccc1)NC(=O)[C@H](Cc1c[nH]c2ccccc12)NC(=O)[C@@H](N)CCCN=C(N)N)[C@@H](C)CC)C(=O)N[C@@H](CCCN=C(N)N)C(=O)N[C@@H](CCCN=C(N)N)C(=O)N[C@@H](Cc1c[nH]c2ccccc12)C(=O)N[C@@H](CCCN=C(N)N)C(=O)N[C@@H](CC(N)=O)C(=O)N[C@@H](CCCN=C(N)N)C(=O)N[C@@H](CCCN=C(N)N)C(N)=O` [RWFRIQLQIRRWRNRR], for which the MIC in assay [2] and in assay [4] was 16 µM (≈ 37.4 µg/mL) throughout.

Turning to `CC[C@H](C)[C@H](NC(=O)[C@H](CCCN=C(N)N)NC(=O)[C@H](CCCCN)NC(=O)[C@@H](NC(=O)[C@@H](NC(=O)[C@H](CCCN=C(N)N)NC(=O)[C@@H](N)CCCCN)[C@@H](C)CC)C(C)C)C(=O)N[C@@H](CCCCN)C(=O)N[C@@H](CCCCN)C(=O)N[C@@H](Cc1ccccc1)C(=O)N[C@@H](CC(C)C)C(=O)N[C@@H](CCCN=C(N)N)C(=O)O` [KRIVKRIKKFLR], the MIC was at least 101 µM in assay [16]; at least 202 µM in [1]; at least 202 µM in assay [17]; 1.25 µM (≈ 1.98 µg/mL) in assay [3]; 2.5 µM (≈ 3.96 µg/mL) in [18]; at least 202 µM in assay [19]. For the same molecule, the MIC in assay [20] came to 2.5 µM (≈ 3.96 µg/mL); in [4], 1.25 µM (≈ 1.98 µg/mL).

Turning to `CC(C)C[C@H](NC(=O)[C@H](CCCN=C(N)N)NC(=O)[C@H](Cc1c[nH]c2ccccc12)NC(=O)[C@H](CCCN=C(N)N)NC(=O)[C@@H](NC(=O)[C@H](Cc1c[nH]c2ccccc12)NC(=O)[C@H](Cc1c[nH]c2ccccc12)NC(=O)[C@H](CCCN=C(N)N)NC(=O)[C@H](CC(C)C)NC(=O)[C@H](Cc1c[nH]c2ccccc12)NC(=O)[C@@H](N)CCCN=C(N)N)[C@@H](C)O)C(=O)N[C@@H](CCCCN)C(N)=O` [RWLRWWTRWRLK], the MIC stood at 2 µM (≈ 3.68 µg/mL) in assay [1]; 4 µM (≈ 7.37 µg/mL) in assay [13]; 4 µM (≈ 7.37 µg/mL) in assay [18]; 4 µM (≈ 7.37 µg/mL) in [14]; 2 µM (≈ 3.68 µg/mL) in [15]; 4 µM (≈ 7.37 µg/mL) in assay [4].

In the case of `CC[C@H](C)[C@H](NC(=O)[C@H](CCCCN)NC(=O)[C@H](CCCCN)NC(=O)[C@H](CC(C)C)NC(=O)[C@H](CCCN=C(N)N)NC(=O)[C@@H](NC(=O)[C@H](CCCN=C(N)N)NC(=O)[C@@H](NC(=O)[C@H](CCCCN)NC(=O)[C@@H](NC(=O)[C@H](CCCN=C(N)N)NC(=O)[C@H](CC(C)C)NC(=O)[C@H](CCCN=C(N)N)NC(=O)[C@H](CCCN=C(N)N)NC(=O)[C@H](Cc1ccccc1)NC(=O)[C@@H](N)CCCN=C(N)N)[C@@H](C)CC)[C@@H](C)O)[C@@H](C)CC)C(N)=O` [RFRRLRIKTRIRLKKI], the MIC in assay [13] is 16 µM (≈ 34.4 µg/mL); in assay [8], 16 µM (≈ 34.4 µg/mL); in assay [18], 64 µM and > 32 µM; in [14], 16 µM (≈ 34.4 µg/mL); in assay [15] it was 16 µM (≈ 34.4 µg/mL); in assay [4], 8 µM and > 4 µM.
